Source: the NIST ThermoML archive (doi:10.1021/je500381c)
± gives the expanded uncertainty stated by the source.

Experiment: xn = mol fraction of the nth substance listed
Settings: for mass density / viscosity: 100 kPa, Liquid; for mass density: Vibrating tube method; for surface tension liquid-gas: Drop volume

CC12CC3CC(C)(C1)CC(C)(C3)C2 [1,3,5-trimethyladamantane] + OCC1CCCCC1
Settings	mass density [kg/m3]	surface tension liquid-gas [mN/m]	viscosity [mPa·s]
293.15 K, x2 = 0	887.48 ± 0.13	–	2.601 ± 0.041
293.15 K, x2 = 0.1	889.7 ± 0.13	–	2.872 ± 0.045
293.15 K, x2 = 0.2001	892.4 ± 0.13	–	3.328 ± 0.052
293.15 K, x2 = 0.2997	895.41 ± 0.13	–	3.955 ± 0.062
293.15 K, x2 = 0.4	898.82 ± 0.13	–	4.859 ± 0.076
293.15 K, x2 = 0.4994	902.62 ± 0.13	–	6.211 ± 0.097
293.15 K, x2 = 0.5991	906.88 ± 0.13	–	8.288 ± 0.13
293.15 K, x2 = 0.7	911.64 ± 0.13	–	11.51 ± 0.18
293.15 K, x2 = 0.801	917.1 ± 0.13	–	16.66 ± 0.26
293.15 K, x2 = 0.8927	922.52 ± 0.13	–	24.62 ± 0.39
298.15 K, x2 = 0	883.99 ± 0.13	26.17 ± 0.15	2.338 ± 0.037
298.15 K, x2 = 0.1	886.13 ± 0.13	26.18 ± 0.15	2.55 ± 0.04
298.15 K, x2 = 0.2001	888.82 ± 0.13	26.4 ± 0.16	2.939 ± 0.046
298.15 K, x2 = 0.2997	891.83 ± 0.13	26.77 ± 0.16	3.455 ± 0.054
298.15 K, x2 = 0.4	895.23 ± 0.13	27.22 ± 0.16	4.184 ± 0.065
298.15 K, x2 = 0.4994	899.02 ± 0.13	27.65 ± 0.16	5.256 ± 0.082
298.15 K, x2 = 0.5991	903.29 ± 0.13	28.16 ± 0.16	6.866 ± 0.11
298.15 K, x2 = 0.7	908.13 ± 0.13	28.88 ± 0.16	9.343 ± 0.15
298.15 K, x2 = 0.801	913.53 ± 0.13	29.74 ± 0.17	13.22 ± 0.21
298.15 K, x2 = 0.8927	918.95 ± 0.13	30.63 ± 0.17	19.19 ± 0.3
303.15 K, x2 = 0	880.47 ± 0.13	–	2.118 ± 0.033
303.15 K, x2 = 0.1	882.54 ± 0.13	–	2.297 ± 0.036
303.15 K, x2 = 0.2001	885.21 ± 0.13	–	2.615 ± 0.041
303.15 K, x2 = 0.2997	888.21 ± 0.13	–	3.041 ± 0.048
303.15 K, x2 = 0.4	891.61 ± 0.13	–	3.639 ± 0.057
303.15 K, x2 = 0.4994	895.4 ± 0.13	–	4.492 ± 0.07
303.15 K, x2 = 0.5991	899.66 ± 0.13	–	5.76 ± 0.09
303.15 K, x2 = 0.7	904.52 ± 0.13	–	7.681 ± 0.12
303.15 K, x2 = 0.801	909.91 ± 0.13	–	10.65 ± 0.17
303.15 K, x2 = 0.8927	915.34 ± 0.13	–	15.28 ± 0.24
308.15 K, x2 = 0	876.94 ± 0.13	–	1.93 ± 0.03
308.15 K, x2 = 0.1	878.93 ± 0.13	–	2.072 ± 0.032
308.15 K, x2 = 0.2001	881.59 ± 0.13	–	2.336 ± 0.037
308.15 K, x2 = 0.2997	884.59 ± 0.13	–	2.694 ± 0.042
308.15 K, x2 = 0.4	887.97 ± 0.13	–	3.187 ± 0.05
308.15 K, x2 = 0.4994	891.76 ± 0.13	–	3.876 ± 0.061
308.15 K, x2 = 0.5991	896.02 ± 0.13	–	4.884 ± 0.076
308.15 K, x2 = 0.7	900.87 ± 0.13	–	6.386 ± 0.1
308.15 K, x2 = 0.801	906.27 ± 0.13	–	8.659 ± 0.14
308.15 K, x2 = 0.8927	911.73 ± 0.13	–	12.26 ± 0.19
313.15 K, x2 = 0	873.4 ± 0.13	–	1.765 ± 0.028
313.15 K, x2 = 0.1	875.32 ± 0.13	–	1.878 ± 0.029
313.15 K, x2 = 0.2001	877.95 ± 0.13	–	2.1 ± 0.033
313.15 K, x2 = 0.2997	880.94 ± 0.13	–	2.402 ± 0.038
313.15 K, x2 = 0.4	884.32 ± 0.13	–	2.811 ± 0.044
313.15 K, x2 = 0.4994	888.09 ± 0.13	–	3.371 ± 0.053
313.15 K, x2 = 0.5991	892.35 ± 0.13	–	4.181 ± 0.065
313.15 K, x2 = 0.7	897.2 ± 0.13	–	5.366 ± 0.084
313.15 K, x2 = 0.801	902.61 ± 0.13	–	7.126 ± 0.11
313.15 K, x2 = 0.8927	908.08 ± 0.13	–	9.952 ± 0.16
318.15 K, x2 = 0	869.86 ± 0.13	–	1.621 ± 0.025
318.15 K, x2 = 0.1	871.69 ± 0.13	–	1.71 ± 0.027
318.15 K, x2 = 0.2001	874.3 ± 0.13	–	1.898 ± 0.03
318.15 K, x2 = 0.2997	877.27 ± 0.13	–	2.151 ± 0.034
318.15 K, x2 = 0.4	880.63 ± 0.13	–	2.494 ± 0.039
318.15 K, x2 = 0.4994	884.4 ± 0.13	–	2.954 ± 0.046
318.15 K, x2 = 0.5991	888.66 ± 0.13	–	3.609 ± 0.057
318.15 K, x2 = 0.7	893.49 ± 0.13	–	4.552 ± 0.071
318.15 K, x2 = 0.801	898.9 ± 0.13	–	5.932 ± 0.093
318.15 K, x2 = 0.8927	904.4 ± 0.13	–	8.189 ± 0.13
323.15 K, x2 = 0	866.31 ± 0.13	–	1.494 ± 0.024
323.15 K, x2 = 0.1	868.04 ± 0.13	–	1.564 ± 0.025
323.15 K, x2 = 0.2001	870.63 ± 0.13	–	1.723 ± 0.027
323.15 K, x2 = 0.2997	873.58 ± 0.13	–	1.936 ± 0.03
323.15 K, x2 = 0.4	876.93 ± 0.13	–	2.224 ± 0.035
323.15 K, x2 = 0.4994	880.69 ± 0.13	–	2.604 ± 0.041
323.15 K, x2 = 0.5991	884.94 ± 0.13	–	3.14 ± 0.049
323.15 K, x2 = 0.7	889.76 ± 0.13	–	3.899 ± 0.061
323.15 K, x2 = 0.801	895.17 ± 0.13	–	4.99 ± 0.078
323.15 K, x2 = 0.8927	900.68 ± 0.13	–	6.785 ± 0.11
328.15 K, x2 = 0	862.76 ± 0.13	–	1.384 ± 0.022
328.15 K, x2 = 0.1	864.39 ± 0.14	–	1.435 ± 0.023
328.15 K, x2 = 0.2001	866.94 ± 0.14	–	1.569 ± 0.025
328.15 K, x2 = 0.2997	869.86 ± 0.14	–	1.752 ± 0.027
328.15 K, x2 = 0.4	873.2 ± 0.14	–	1.994 ± 0.031
328.15 K, x2 = 0.4994	876.94 ± 0.14	–	2.311 ± 0.036
328.15 K, x2 = 0.5991	881.18 ± 0.13	–	2.751 ± 0.043
328.15 K, x2 = 0.7	885.99 ± 0.13	–	3.367 ± 0.053
328.15 K, x2 = 0.801	891.4 ± 0.13	–	4.238 ± 0.066
328.15 K, x2 = 0.8927	896.92 ± 0.13	–	5.705 ± 0.089
333.15 K, x2 = 0	859.2 ± 0.14	–	1.284 ± 0.021
333.15 K, x2 = 0.1	860.72 ± 0.14	–	1.322 ± 0.021
333.15 K, x2 = 0.2001	863.23 ± 0.14	–	1.436 ± 0.023
333.15 K, x2 = 0.2997	866.13 ± 0.14	–	1.59 ± 0.025
333.15 K, x2 = 0.4	869.45 ± 0.14	–	1.797 ± 0.028
333.15 K, x2 = 0.4994	873.17 ± 0.14	–	2.061 ± 0.032
333.15 K, x2 = 0.5991	877.4 ± 0.14	–	2.426 ± 0.038
333.15 K, x2 = 0.7	882.2 ± 0.14	–	2.93 ± 0.046
333.15 K, x2 = 0.801	887.6 ± 0.14	–	3.632 ± 0.057
333.15 K, x2 = 0.8927	893.12 ± 0.13	–	4.772 ± 0.075
